Test results taken from PMC12441834, “Highly Potent and Subtype-Selective Sperm-Specific Potassium Channel SLO3 Inhibitors Display High Tissue Exposure in the Murine Female Reproductive Tract” (ACS Pharmacology & Translational Science, 2025).
“And” between values parts separate entries of the source, which are not always exact repeats. Equal entries are not always repeated.

Columns and labels:
[1] = Multispecies hepatocyte MetID; assay type: in vitro ADME, cynomolgus monkey; settings: 4 h incubation with hepatocytes, 10 μM
Protocol: (§1) Metabolites were identified after preincubating each compound at a 10 μM final concentration with 2.5 × 10^5 hepatocytes from human, dog, cynomolgus monkey, and rat in 200 μL of Optiincubate buffer (BioIVT, Westbury, NY). […] After centrifugation, 60 μL of the supernatant was transferred to 60 μL of water for LC-MS analysis. Samples were analyzed using a Thermo Scientific Vanquish UHPLC consisting of a VH-P10-A pump, a VH-A10-A sampler module, a VH-C10-A column compartment, and the VF-D11-A UV detector coupled to an Orbitrap Fusion Lumos instrument with UVPD. A binary solvent system consisting of (A) water with 0.1% formic acid and (B) acetonitrile with 0.1% formic acid was used with an Accucore Vanquish C18+, 2.1 mm × 100 mm, 1.5 μm, UHPLC column maintained at 40 °C. The data generated by data-dependent acquisition via normal acquisition and AcquireX were processed manually with Thermo Scientific FreeStyle and assisted by Compound Discoverer 3.3.1.111 to aid in the structural assignments.

[2] = Multispecies hepatocyte MetID; assay type: in vitro ADME, dog; settings: 4 h incubation with hepatocytes, 10 μM
Protocol: as §1

mouse SLO3 = biological target: T1, mouse SLO3 (Mus musculus, UniProt O54982); test: Whole-cell recording, mouse SLO3-γ2 expressed in HEK293 cells; assay type: cell-based; settings: for IC50: HEK293 cells transfected with murine SLO3-γ2, read-out: mSLO3 IC50; for Hill coefficient: mouse SLO3-γ2 in HEK293 cells
T1 construct: expressed in transfected cells; host or cells: HEK293 (transient, Lipofectamine 3000, with pmaxGFP as marker)
T1 sequence (O54982 1-1121): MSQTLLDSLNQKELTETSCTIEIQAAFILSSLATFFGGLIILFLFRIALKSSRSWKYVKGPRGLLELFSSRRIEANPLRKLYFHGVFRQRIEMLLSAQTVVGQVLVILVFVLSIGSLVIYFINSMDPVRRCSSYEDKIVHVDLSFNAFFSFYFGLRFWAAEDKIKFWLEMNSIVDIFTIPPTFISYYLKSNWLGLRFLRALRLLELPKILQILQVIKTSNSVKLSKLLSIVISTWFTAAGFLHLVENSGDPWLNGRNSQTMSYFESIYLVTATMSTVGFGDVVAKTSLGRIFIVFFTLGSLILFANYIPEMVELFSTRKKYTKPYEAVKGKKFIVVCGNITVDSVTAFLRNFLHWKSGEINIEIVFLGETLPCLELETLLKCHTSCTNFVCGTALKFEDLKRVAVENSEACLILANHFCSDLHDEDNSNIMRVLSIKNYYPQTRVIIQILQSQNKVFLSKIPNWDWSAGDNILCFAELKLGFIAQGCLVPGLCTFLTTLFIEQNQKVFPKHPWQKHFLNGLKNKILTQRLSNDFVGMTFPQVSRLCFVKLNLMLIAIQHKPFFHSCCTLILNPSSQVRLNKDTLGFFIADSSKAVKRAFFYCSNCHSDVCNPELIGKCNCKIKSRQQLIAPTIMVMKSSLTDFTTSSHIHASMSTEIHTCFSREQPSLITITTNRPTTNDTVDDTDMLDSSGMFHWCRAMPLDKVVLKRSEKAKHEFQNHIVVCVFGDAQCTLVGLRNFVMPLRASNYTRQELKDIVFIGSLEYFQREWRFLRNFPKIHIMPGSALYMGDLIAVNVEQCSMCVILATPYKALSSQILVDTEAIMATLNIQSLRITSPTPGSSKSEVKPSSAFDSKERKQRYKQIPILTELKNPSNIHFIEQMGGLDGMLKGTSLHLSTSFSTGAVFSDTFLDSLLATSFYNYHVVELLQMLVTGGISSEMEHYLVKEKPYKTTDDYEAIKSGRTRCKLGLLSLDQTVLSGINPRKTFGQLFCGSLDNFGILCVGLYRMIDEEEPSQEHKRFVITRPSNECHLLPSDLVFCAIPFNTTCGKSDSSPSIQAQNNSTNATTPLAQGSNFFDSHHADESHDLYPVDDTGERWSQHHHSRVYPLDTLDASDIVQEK
T1 sequence (Q5M8M9 24-314 partner): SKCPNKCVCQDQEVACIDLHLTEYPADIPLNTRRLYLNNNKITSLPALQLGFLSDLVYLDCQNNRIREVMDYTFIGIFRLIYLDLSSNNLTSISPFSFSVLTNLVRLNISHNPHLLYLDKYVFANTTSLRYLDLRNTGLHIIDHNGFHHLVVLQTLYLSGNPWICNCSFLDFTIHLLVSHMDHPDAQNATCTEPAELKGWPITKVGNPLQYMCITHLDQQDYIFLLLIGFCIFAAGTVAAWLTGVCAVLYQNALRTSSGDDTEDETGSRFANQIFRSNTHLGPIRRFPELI
Protocol: HEK293 cells were plated at a density of ∼400,000 cells per 40 mm dish the day before transfection. Lipofectamine 3000 transfection reagent (catalog #L3000015; Thermo Fisher Scientific) was used to transfect HEK293 cells following manufacturer’s instructions. Per 40 mm dish, 2.25 μg of mouse SLO3 and its auxiliary subunit γ2 cDNAs (1:1) were added to cell layers that were 70–90% confluent. As a marker for transfection, cells were cotransfected with pmaxGFP, a CMV plasmid expressing green fluorescent protein (Amaxa Biosystems) at 0.2 μg per dish. After transfection, the cells were incubated at 37 °C with 5% CO2 for 2–4 d until recording.
Voltage-clamp recordings were performed using an Axopatch 200B amplifier (Molecular Devices). Recordings were filtered at 5 kHz with the internal filter of the amplifier and digitized at 50 kHz using a Digidata 1550B digitizer (Molecular Devices). Recording pipettes were pulled from borosilicate glass with tip resistances of 3–8 MΩ after filling with pipette solution containing (in mM): 140 KMES, 1 EGTA, 10 HEPES, pH 7.4 with KOH. Bath solutions contained (in mM): 135 NaMES, 5 KMES, 2 MgCl2, and 10 HEPES, pH 7.4 with NaOH. Experiments were performed at room temperature (∼22 °C). Whole-cell currents were evoked from a holding potential of −60 mV in steps from −80 to +100 mV in 10 mV increments. Test compounds were prepared daily from a 10 mM stock solution (in DMSO).
Data were analyzed with a pClamp 10.6 (Molecular Devices). VU6047606 and VU6032735 inhibition dose–response relationships were fit by the Hill equation in OriginPro 7.5 (OriginLab Corporation): R=1/1+(C/IC50)^n+Ioff , in which R is fractional unblock, C is compound concentration, IC50 is the half inhibition concentration, n is the Hill coefficient, and I off is an offset item for leak current. Error bars in the figures represent the SDs. Each data point is averaged from at least 5 measurements. Curve-fitting results are reported as the fitted values with standard error, which was estimated by OriginPro according to the Error Propagation formula.

Adrenergic α1D = Adrenergic α1D (Homo sapiens, UniProt P25100); test: LeadProfilingScreen radioligand binding
Sequence of Adrenergic α1D (P25100 whole entry): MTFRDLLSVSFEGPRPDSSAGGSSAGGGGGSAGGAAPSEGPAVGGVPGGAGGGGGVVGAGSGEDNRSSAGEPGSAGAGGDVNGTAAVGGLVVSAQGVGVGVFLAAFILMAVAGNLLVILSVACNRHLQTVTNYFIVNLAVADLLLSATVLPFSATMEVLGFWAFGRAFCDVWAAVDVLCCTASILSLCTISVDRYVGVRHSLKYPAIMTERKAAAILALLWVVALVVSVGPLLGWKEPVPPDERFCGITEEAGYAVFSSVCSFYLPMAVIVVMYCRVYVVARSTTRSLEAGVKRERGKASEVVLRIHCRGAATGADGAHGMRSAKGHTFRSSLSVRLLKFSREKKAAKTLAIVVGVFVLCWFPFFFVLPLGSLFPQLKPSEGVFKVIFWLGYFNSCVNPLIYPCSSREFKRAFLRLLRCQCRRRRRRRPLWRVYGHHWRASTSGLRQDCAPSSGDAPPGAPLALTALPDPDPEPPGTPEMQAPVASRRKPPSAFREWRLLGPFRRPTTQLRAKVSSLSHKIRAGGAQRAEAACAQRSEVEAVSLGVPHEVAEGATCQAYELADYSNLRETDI

Row | Compound | % of Parent Related Material, Cyno [1] | % of Parent Related Material, Dog [2] | IC50 (mouse SLO3) [nM] | Hill coefficient (mouse SLO3) | fold less potent on murine SLO3 than on human SLO3 (mouse SLO3; mouse versus human SLO3) [fold] | inhibition at 10 µM (Adrenergic α1D) [%] | fold more potent than VU6047606 on mouse SLO3 (mouse SLO3; HEK293 cells, mSLO3-γ2) [fold]
1 | Cc1cc(Cl)cc2sc(O[C@H]3CCN(C(=O)CCCS(=O)(=O)c4cccc(Br)c4)C[C@H]3F)nc12 [VU6047606] | 82.77% and > 82% | 93.78% and > 82% | 1150 | 0.83 ± 0.19 | ~7 | 13 | 
2 | O=C(c1ccc(OCc2ccc(OC(F)(F)F)cc2)cc1)N1CCN(c2ccc(C(F)(F)F)cn2)CC1 [VU6032735] | > 98% | > 98% | 730 | 1.03 ± 0.02 |  | 2 | ~1.6
